These results are taken from publication PMC9097188, “Design, Synthesis, and Molecular Modeling Studies of a Novel Benzimidazole as an Aromatase Inhibitor” (ACS Omega, 2022).

Where two headings read alike, the source gives them in different places. A value given as a limit tells only on which side of the number the result lay.

The test system of data set [1] is HepG2 (human liver carcinoma cell line). The experiment in a line: MTT cytotoxicity assay, HepG2. Type of data set: cell-based. Conditions: mean of four independent studies, read-out: IC50 against HepG2. On the procedure: (§1) In this study, all compounds were tested for antiproliferative activity using an MTT assay with doxorubicin as a control against MCF-7 (human breast adenocarcinoma cell line), A549 (lung carcinoma cell line), HepG2 (human liver carcinoma cell line), HeLa (cervical cell line), and C6 (rat glioma cell line) cell lines. Table 1 summarizes the results of four independent studies as the mean IC50 value (half-maximum inhibitory concentration).
(§2) MTT tests were used to screen the anticancer activities of compounds 5a–i. The MTT assays were carried out as stated previously.[16],[17] The anticancer activity of the final compounds was tested on […]: A549 (lung carcinoma cell line), HeLa (cervical cell line), MCF-7 (human breast adenocarcinoma cell line), HepG2 (human liver carcinoma cell line), C6 (rat glioma cell line), and NIH3T3 […] (mouse embryo fibroblast cell line). In the MTT experiments, doxorubicin and Hoechst 33342 were employed as reference drugs.

The test system of data set [2] is C6 (rat glioma cell line). The experiment in a line: MTT cytotoxicity assay, C6. The class given is cell-based. The settings on record: mean of four independent studies, read-out: IC50 against C6. On the procedure: as §1, §2
For data set [3], the system named is HeLa (cervical cell line). The experiment in a line: MTT cytotoxicity assay, HeLa. The class given is cell-based. Conditions: Homo sapiens, mean of four independent studies, read-out: IC50 against HeLa. On the procedure:
as §1, §2

Data set [4] has as its system A549 (lung carcinoma cell line). The experiment in a line: MTT cytotoxicity assay, A549. Type of data set: cell-based. Conditions: Homo sapiens, mean of four independent studies, read-out: IC50 against A549. On the procedure: as §1, §2
The target in the next data set is T1, human aromatase (Homo sapiens, UniProt P11511).
T1 construct: purchased BioVision
T1 sequence (P11511 1-503): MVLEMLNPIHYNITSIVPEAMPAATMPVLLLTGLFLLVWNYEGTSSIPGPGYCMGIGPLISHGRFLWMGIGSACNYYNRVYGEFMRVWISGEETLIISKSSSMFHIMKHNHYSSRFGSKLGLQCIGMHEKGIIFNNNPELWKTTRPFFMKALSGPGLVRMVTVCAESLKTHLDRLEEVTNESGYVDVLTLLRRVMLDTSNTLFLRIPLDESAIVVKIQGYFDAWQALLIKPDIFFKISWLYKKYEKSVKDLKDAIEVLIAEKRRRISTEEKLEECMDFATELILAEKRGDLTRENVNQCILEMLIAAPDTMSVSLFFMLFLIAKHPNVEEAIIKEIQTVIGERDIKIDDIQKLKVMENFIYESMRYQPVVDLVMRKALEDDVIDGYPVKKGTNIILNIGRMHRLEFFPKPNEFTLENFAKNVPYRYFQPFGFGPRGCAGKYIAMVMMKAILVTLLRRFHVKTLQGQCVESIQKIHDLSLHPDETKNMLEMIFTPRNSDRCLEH
The experiment in a line: Aromatase (CYP19A) Inhibitor Screening Kit (Fluorimetric), BioVision. The class given is biochemical. The text has this: An in vitro fluorescence-based test (Aromatase (CYP19A) Inhibitor Screening Kit (Fluorimetric), BioVision) was used to determine the inhibitory activity of the produced compounds against human aromatase.
The BioVision Aromatase (CYP19A) Inhibitor Screening Kit (Fluorometric) was used to carry out this experiment.

Data set [5] relates to MCF-7 (human breast adenocarcinoma cell line). The experiment in a line: MTT cytotoxicity assay, MCF-7. Type of data set: cell-based. The settings on record: mean of four independent studies, read-out: IC50 against MCF-7. Here is the method: as §1, §2
The mark [6] stands for this setting: fluorimetric kit, compound dissolved in acetonitrile, read-out: IC50 aromatase inhibition.
[7] abbreviates: experimental validation of 3D-QSAR model, read-out: IC50 (aromatase, Table 5).

As to `CCOc1ccc(-c2nc3ccc(-c4nnc(SCC(=O)N5CCN(Cc6ccc(F)cc6)CC5)o4)cc3[nH]2)cc1` [5i, 2-((5-(2-(4-Ethoxyphenyl)-1H-benzo[d]imidazol-6-yl)-1,3,4-oxadiazol-2-yl)thio)-1-(4-(4-fluorobenzyl)piperazin-1-yl)ethan-1-one], the melting point was in the range of 189.9 to 191.4 °C. Moreover, the half-inhibitory concentration (IC50) in data set [1] is 28.7 ± 1.22 µM. Further, the IC50 in data set [2] stood at 6 ± 0.227 µM. Besides, the IC50 in data set [3] came to 42 ± 1.32 µM. For the same compound, the concentration for half-maximal inhibition (IC50) in data set [4] came to 4.52 ± 0.21 µM. Moreover, on human aromatase (setting [6]), the IC50 came to 80.4 ± 3.12 µM. Moreover, the IC50 in data set [5] (Homo sapiens, MCF7, MTT assay) amounted to 9.06 ± 0.311 µM. For the same compound, the concentration for half-maximal inhibition (IC50) in data set [5] (MTT assay) was 9.96 ± 0.312 µM.

`O=C(CSc1nnc(-c2ccc3nc(-c4ccc(O)cc4)[nH]c3c2)o1)N1CCN(Cc2ccccc2)CC1` [5a, 2-((5-(2-(4-Hydroxyphenyl)-1H-benzo[d]imidazol-6-yl)-1,3,4-oxadiazol-2-yl)thio)-1-(4-benzylpiperazin-1-yl)ethan-1-one] yielded a melting point of 266.5 to 267.9 °C. Besides, the IC50 in data set [1] is 38.8 ± 0.887 µM. For the same compound, the IC50 in data set [2] is at least 100 µM. For the same compound, in data set [3], the IC50 is at least 100 µM. For the same compound, the IC50 in data set [4] is at least 100 µM. For the same compound, the IC50 at human aromatase (setting [6]) was 38.6 ± 1.13 µM. Also, the IC50 in data set [5] (Homo sapiens, MCF7, MTT assay) is 9.96 ± 0.312 µM. In addition, the IC50 in data set [5] (MTT assay) is 9.06 ± 0.311 µM.

`O=C(CSc1nnc(-c2ccc3nc(-c4ccc(O)cc4)[nH]c3c2)o1)N1CCN(Cc2ccc(F)cc2)CC1` [5c, 2-((5-(2-(4-Hydroxyphenyl)-1H-benzo[d]imidazol-6-yl)-1,3,4-oxadiazol-2-yl)thio)-1-(4-(4-fluorobenzyl)piperazin-1-yl)ethan-1-one]: the melting point was over 400 °C. Moreover, in data set [1], the half-inhibitory concentration (IC50) was 17.3 ± 1.1 µM. The IC50 in data set [2] amounted to 18.2 ± 1.46 µM. Moreover, in data set [4], the IC50 is at least 100 µM. At human aromatase (setting [7]), the IC50 worked out at 2.51 µM. The IC50 at human aromatase (setting [6]) was 2.51 ± 0.124 µM. In addition, the IC50 in data set [5] (Homo sapiens, MCF7, MTT assay) came to 6.55 ± 0.287 µM. The IC50 in data set [5] (MTT assay) turned out to be 5.13 ± 0.211 µM.

The compound `O=C(CSc1nnc(-c2ccc3nc(-c4ccc(O)cc4)[nH]c3c2)o1)N1CCN(Cc2ccc(Cl)cc2)CC1` [5b, 2-((5-(2-(4-Hydroxyphenyl)-1H-benzo[d]imidazol-6-yl)-1,3,4-oxadiazol-2-yl)thio)-1-(4-(4-chlorobenzyl)piperazin-1-yl)ethan-1-one] had a melting point of 155.5 to 157.4 °C. For the same compound, the half-inhibitory concentration (IC50) in data set [1] is 55.2 ± 1.46 µM. Besides, the IC50 in data set [2] stood at 24.7 ± 1.21 µM. Moreover, the IC50 in data set [3] is at least 100 µM. The IC50 in data set [4] was at least 100 µM. Further, on human aromatase (setting [7]), the IC50 turned out to be 1.48 µM. Moreover, the IC50 at human aromatase (setting [6]) came to 1.47 ± 0.062 µM. In data set [5] (Homo sapiens, MCF7, MTT assay), the IC50 is 5.13 ± 0.211 µM. In addition, the IC50 in data set [5] (MTT assay) is 6.55 ± 0.287 µM.
